The target in series [1] is T1, human sex Hormone Binding Globulin (SHBG) (Homo sapiens, UniProt P04278).
T1 construct: Human SHBG was purified from transgenic mouse serum; made in house; host or cells: transgenic mouse (serum)
T1 sequence (P04278 30-402): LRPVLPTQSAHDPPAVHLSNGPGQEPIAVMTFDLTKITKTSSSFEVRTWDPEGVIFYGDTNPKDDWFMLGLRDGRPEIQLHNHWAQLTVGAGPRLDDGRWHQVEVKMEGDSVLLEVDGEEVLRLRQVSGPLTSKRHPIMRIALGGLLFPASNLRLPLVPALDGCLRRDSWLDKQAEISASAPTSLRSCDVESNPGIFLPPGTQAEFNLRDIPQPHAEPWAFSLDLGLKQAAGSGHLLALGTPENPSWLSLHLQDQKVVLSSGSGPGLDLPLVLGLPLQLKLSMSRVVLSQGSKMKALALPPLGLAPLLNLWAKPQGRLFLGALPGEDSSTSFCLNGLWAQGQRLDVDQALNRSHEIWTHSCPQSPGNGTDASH
Nature of the series: Competitive steroid-binding assay for human SHBG. Conditions: for relative binding affinity for human SHBG: rising in the order ethinylestradiol, 17β-estradiol, testosterone, 5α-dihydrotestosterone. Here is the method: Human SHBG was treated for 30 min at room temperature with a dextran-coated charcoal (DCC) suspension in phosphate buffered saline (PBS) to remove any steroid ligand. After centrifugation (2,000×g for 10 min) to sediment the DCC, the supernatant containing the human SHBG was diluted in PBS to a concentration of 1 nM based on its steroid binding capacity.
The average amounts of [^3H]labeled ligands bound to SHBG at each concentration of competitor (B) were expressed as a percentage of the average amounts of [^3H]labeled ligands bound to SHBG in the absence of competitor (B0), and were. plotted against the concentration of competitor in each assay tube.

The subject of series [2] is four-day cyclic rats (ovulation). Nature of the series: Antiovulatory bioassay in four-day cyclic rats, subcutaneous dosing. Type of series: in vivo, rat. To be noted: for inhibition of ovulation: EE 1.0-100 μg/kg, E2 and E4 0.1-3.0 mg/kg; for complete ovulation inhibition: twice daily sc, higher dosages. Here is the method: Vaginal smears from female rats are obtained daily for two weeks to select four-day cycling rats. Only four-day cyclic rats are to be used for the antiovulatory bioassay. […] One day after the final dose (day 5), rats are euthanized by CO2 asphyxiation at 1 pm, and the number of ova per oviduct is determined. Group means are subsequently calculated for the number of ova per ovulated rat (both oviducts). The ratio of rats ovulating for each treatment group is compared to the ratio for the vehicle-treated rats.

In series [3] the test system is ovariectomized adult rats (vaginal epithelial cornification). As to the kind of experiment: Vaginal cornification bioassay in ovariectomized rats, subcutaneous dosing. Type of series: in vivo, rat. Here is the method:
Adult intact female CD rats were ovariectomized to induce estrogen deficiency. […] Castrate vaginal smears are indicative that complete ovariectomy was achieved. Treatment commenced following completion of the 7 days of smearing (day 0=first day of dosing). Animals were dosed, once daily for 7 consecutive days. Daily vaginal lavages continued to be obtained for 7 days after dosing was initiated in order to detect vaginal cornification, as an indication of an estrogenic response. A drop of vaginal washings was placed on a glass slide and examined by light microscopy to detect the presence or absence of cornified epithelial cells. Vaginal lavages were obtained prior to dosing on days 0-6 and prior to necropsy on day 7. The vaginal cornification bioassay was performed in order to determine the estrogenic profile of E4 when given subcutaneously (sc) to ovariectomized adult rats. E2 was used as a positive control. […] The occurrence of vaginal cornification, indicative of an estrogenic response, is an “all or none” response. Data are, therefore, expressed as the number of rats showing a vaginal estrogenic response over the number of rats (ratio) treated.

The conditions of series [4]: tritium labeled, intravenous, two adult women; cited from earlier work.
In series [5] the test system is human breast cancer cells (MCF-7). Conditions: MCF-7, long term tissue culture; cited from earlier work.
Series [6] is described as follows: Elimination half-life after single subcutaneous dose, plasma by HPLC-MS/MS. Type of series: in vivo, rat. Conditions: single sc dose, female Sprague Dawley rats, sampling 0.5-24 hours. Here is the method:
To determine the elimination half-life of estetrol (E4) after subcutaneous administration (sc), single dose studies were performed in female Sprague Dawley rats followed by frequent blood sampling over a 24 hours interval.
Female Sprague Dawley rats were equipped with a permanent silatic heart catheter, as described by Kuipers et al. (1985,Gastroenterology, 88, 403-411). Rats were allowed to recover from surgery for 5 days and were than administered 0.05, 0.5,or 5 mg/kg E4 in 0.5 ml arachidis oil. E4 was injected in the neck area using a 1 ml syringe and 20 g needle. Blood samples were subsequently collected via the heart catheter in heparinized tubes at 0.5, 1, 2, 4, 8 and 24 hours. Erythrocytes were removed by centrifugation at 5000×g for 10 minutes at 4° C. and blood plasma was stored at −20° C. […] With each sample batch, a calibration curve with 6 calibrators was recorded. The calibration curve was calculated using linear regression (correlation coefficient>0.98), which permitted quantitation of plasma concentrations. […]
Plasma E4 concentration data were analysed with “WinNonLin, edition 3.1” and involved pharmacokinetic parameters for Cmax, AUC0-24 and half-life.

In the next series the test system is uterus. Conditions: continuous administration from a subcutaneous depot; Martucci et al., 1977; cited from earlier work.
The test system of another series is immature rat uterus. To be noted: subcutaneous, Holinka et al., cited from earlier work.

Each structure is given as a SMILES string. Like-named read-outs stand apart in the source and are kept apart here.

In the case of `C[C@]12CCC(=O)C[C@@H]1CC[C@@H]1[C@@H]2CC[C@]2(C)[C@@H](O)CC[C@@H]12` [5α-dihydrotestosterone, reference compound], the “relative binding affinity for human SHBG” value in series [1] was “show an increased relative binding affinity for human SHBG”.

For `C[C@]12CC[C@@H]3c4ccc(O)cc4CC[C@H]3[C@@H]1CC[C@@H]2O` [17β-estradiol], the inhibition of ovulation result in series [2] (twice daily sc for 4 days) was “dose-dependently inhibits ovulation”. In series [2], the complete ovulation inhibition result is “complete ovulation inhibition is achieved”. Moreover, the “Number of Rats Exhibiting Estrogenic Response/Number of Rats Treated” value in series [3] (0.05 mg/kg/day sc, Day 0) is recorded as 0/8; in series [3] (0.05 mg/kg/day sc, Day 1), 0/8; in series [3] (0.05 mg/kg/day sc, Day 2) it was 8/8; in series [3] (0.05 mg/kg/day sc, Day 3), 8/8; in series [3] (0.05 mg/kg/day sc, Day 4), 8/8; in series [3] (0.05 mg/kg/day sc, Day 5) it was 8/8. For the same molecule, the “Number of Rats Exhibiting Estrogenic Response/Number of Rats Treated” value is given as 8/8 in series [3] (0.05 mg/kg/day sc, Day 6) and 8/8 in series [3] (0.05 mg/kg/day sc, Day 7).

Consider `C[C@]12CC[C@@H]3c4ccc(O)cc4CC[C@H]3[C@@H]1[C@@H](O)[C@@H](O)[C@@H]2O` [estetrol, 1,3,5 (10)-estratrien-3, 15α,16α,17β-tetrol], for which, in series [2] (twice daily sc for 4 days), the “antiovulatory activity compared with E2” value was “equal potency or even more potency in inhibiting ovulation than E2”. Also, the inhibition of ovulation entry in series [2] (twice daily sc for 4 days) was “dose-dependently inhibits ovulation”. Also, in series [2], the complete ovulation inhibition entry was “complete ovulation inhibition is achieved”. For the same molecule, in series [4], the metabolism result is given as “virtually no metabolism except for conjugation took place”. For the same molecule, in series [5], the “agonistic potency in in vitro cell proliferation, of the magnitude observed for 17β-estradiol” value is 2%. Moreover, the “plasma levels of unconjugated E4 over a 24 hour interval” value in series [6] is listed as “detection of bioactive levels of unconjugated E4 at all time points”. Further, the “Number of Rats Exhibiting Estrogenic Response/Number of Rats Treated” value in series [3] (1.0 mg/kg/day sc, Day 7, listed as E4) is on record as “all rats showed a vaginal estrogenic response”; in series [3] (3.0 mg/kg/day sc, Day 7, listed as E4), “all rats showed a vaginal estrogenic response”. For the same molecule, the “onset of vaginal epithelial cornification” value in series [3] (sc 0.1, 0.3, 1.0 and 3.0 mg/kg/day) is “dose-dependent”. In addition, the “day of treatment on which vaginal epithelial cornification started” value in series [3] (sc 0.1, 0.3, 1.0 and 3.0 mg/kg/day, same day as observed for E2) amounted to 2 days. Further, the uterotrophic activity result in the series on uterus, in the series on immature rat uterus (1979) and in the series with immature rat uterus (1980) was “very weak uterotrophic activity” in each case. Also, the “binding to human SHBG (competitive displacement)” value in series [1] ([3H]DHT as labeled ligand) and in series [1] ([3H]estradiol as labeled ligand) was “does not bind at all” each time. For the same molecule, the “binding to SHBG compared with the other estrogens tested” value in series [1] (compared with ethinylestradiol and 17β-estradiol) is recorded as “negligible”.

For `C[C@]12CC[C@H]3[C@@H](CCC4=CC(=O)CC[C@@]43C)[C@@H]1CC[C@@H]2O` [testosterone, reference compound], the “relative binding affinity for human SHBG” value in series [1] is “show an increased relative binding affinity for human SHBG”.

These data come from patent US7871995B2, “Drug delivery system comprising a tetrahydroxylated estrogen for use in hormonal contraception” (Pantarhei Bioscience B.V., priority 2001, dated 2011).
